Data taken from patent US20160287621A1, “BIOLOGICAL PRODUCTION OF NAD PRECURSORS AND ANALOGS” (PRESIDENT AND FELLOWS OF HARVARD COLLEGE, priority 2013, published 2016).

Key:
[1] = system: Human dermal fibroblasts (HDFa); assay: NAD+ levels in human dermal fibroblasts treated for 24 hrs; assay type: cell-based
Protocol: A and B) Human dermal fibroblasts (HDFa) were treated with various concentration of NMN extract or pure NMN from Sigma (St. Louis, Mo.) respectively for 24 hrs and NAD+ levels were determined.
A) and B) Human dermal fibroblasts (HDFa) were treated with 50 μM of pure NMN and different concentration of Folate or S-adenosyl-L-methionine (SAM) respectively for 24 hrs and NAD^+ levels were determined.
The effect of pure NMN and partially purified NMN extract on the NAD^+ level in cells was investigated. Briefly, human dermal fibroblasts (HDFa) were treated with varying concentrations of NMN extract or pure NMN for 24 hours and NAD^+ levels were determined. Pure NMN was obtained from Sigma. Partially purified NMN extract was obtained using the methods described above.

[2] = cigarette smokers, small clinical trial; cited from earlier work

With `C[S+](CC[C@H](N)C(=O)O)C[C@H]1O[C@@H](n2cnc3c(N)ncnc32)[C@H](O)[C@@H]1O` (stereo partly drawn) [SAM, S-adenosyl-L-methionine] the “effect for raising NAD+ levels in combination with NMN” value ([1]; 50 μM pure NMN plus different concentrations of Folate or SAM, 24 hrs) was “synergistic effect”.
In the case of `Cc1nc(-c2cccnc2)sc1C(=O)Nc1ccccc1-c1cn2c(CN3CCOCC3)csc2n1` [SRT2104], the “serum lipid profile (total cholesterol, LDL and triglycerides)” value [2] is given as “improved the serum lipid profile”.
For `NC(=O)c1ccc[n+]([C@@H]2O[C@H](COP(=O)([O-])O)[C@@H](O)[C@H]2O)c1` [Pure NMN, nicotinamide mononucleotide], the “NAD+ levels in cells” value ([1]; varying concentrations, 24 hours) was “increased levels of NAD^+”.
